Usually melting point stands for the temperature, or range, at which the solid turns liquid.

With `COc1ccc(-c2nc3c(O)cccc3s2)cc1`, the melting point lay in the range of 128 to 130 °C.

Take `CCOC(=O)c1c(C)nc(N2CCCCC2)c2nccnc12`: the melting point lay in the range of 73 to 74 °C.

As for `O=C(OCc1ccccc1)N1CCC(O)(c2ccc(C(F)(F)F)cc2)CC1`, the melting point stood at 102 °C.

Compound `CON=CNC(=O)c1ccc(C=NO)cc1C` displayed a melting point of 88 to 91 °C.

Turning to `Cc1c(-c2ccccc2F)[nH]c(N)c1C#N`, the melting point was in the range of 117 to 118 °C.

For `CC(=O)c1cc2cnccc2n1S(=O)(=O)c1ccccc1`, the melting point is 205 °C.

For `Cc1ccc(F)cc1C(=O)Nc1ccc(C(=O)N2CCc3cn[nH]c3-c3sccc32)c(Cl)c1`, the melting point lay within 310 to 312 °C.

`OC12CC3CC(O)(C1)CC(O)(C3)C2` displayed a melting point of 217 °C.

`CCc1cccc(CCC(O)c2ccccc2)c1NC(=O)CC1c2ccccc2Oc2ccccc21` (configuration not stated): the melting point is 192 to 193 °C.

In the case of `O=C(Cn1c2c(c(=O)n3nc(-c4ccc(Cl)cc4)cc13)CN(C1CCCCC1)C2=O)c1ccccc1`, the melting point lay in the range of 237 to 239 °C.

Compound `CCOc1nc(CCO)nc(N2CCc3ccccc3CC2)c1C#N` registered a melting point of 108 to 111 °C.

`CC(C)(C(=O)O)n1nc2ccc(NCCCN3CCC(OC(c4ccccc4)c4ccccc4)CC3)nn2c1=O` showed a melting point of 181 to 185 °C.

`O=C1CCCC(=O)C1C(=O)c1ccccc1[N+](=O)[O-]` registered a melting point of 132 to 135 °C.

Take `CCCCCCCCCCCCCCCCCCOc1cc(OCCCOc2ccc(C(C)(C)C)cc2)cc(N(CC(=O)OC)CC(=O)OC)c1`: the melting point lay in the range of 56 to 58 °C.

In turn, `O=c1oc2cc(O)c(O)c([N+](=O)[O-])c2c2c1CCCC2` registered a melting point of 238 to 255 °C.

`COc1cc(-c2ccc(C#N)cc2)cc(C=O)c1O` yielded a melting point of 177 to 178 °C.

Compound `CCCOc1cc(Cn2[nH]c(N)cc2=O)ccc1Cl` registered a melting point of 143 °C.

`COC1(c2cccc(OCc3ccc4ccccc4c3)c2)CC(C)OC(C)C1` (configuration not stated) came in with a melting point of 105 to 107 °C.

`CCCCNC(=O)N1C2=NC(C)(C)N(C)C(=O)N2c2ccccc21` showed a melting point of 95 to 97 °C.

On to `O=C(O)c1ccc(Nc2nccc(-c3cccnc3)n2)cc1`, for which the melting point lay within 311 to 317 °C.

`CC(C)n1nc(-c2sc(NC(=O)c3ccc(CN4CCCCC4)cc3)nc2-c2ccccc2)ccc1=O` gave a melting point of 136 to 138 °C.

For `COc1nccc(-c2ccc3cc(N(C)C)ccc3c2)c1C#N`, the melting point lay in the range of 150 to 151 °C.

With `Cc1cc2c(-c3ccccc3)noc2c2c1OC(C(=O)O)C2` (configuration not stated), the melting point lay in the range of 210 to 213 °C.

For the compound `CC(=O)Nc1ncc2cc(-c3c(Cl)cccc3Cl)c(=O)n(C)c2n1`, the melting point lay within 258 to 260 °C.

As for `CCCCN(CCCCCN(CCCC)c1ccc(C=O)cc1)c1ccc(C=O)cc1`, the melting point was in the range of 51 to 52 °C.

For the compound `C=C(COC(=O)CCCCCCBr)COC(=O)NCCCCCCCCCCCCCCCCCC`, the melting point was 49 °C.

Compound `CCN1C(=O)CCC2=C1CCc1cc(F)ccc12` gave a melting point of 72 °C.

`O=C(O)c1cc(-n2c(-c3ccccc3)cc3c2CCCC3)ccc1S`: the melting point is 186 to 188 °C.

As to `CC(C#CC1=C(C)C(O)C(O)C1(C)C)=CCO` (configuration not stated), the melting point lay in the range of 121 to 122 °C.

`COc1nc2ccccc2cc1NC(=O)N1CCN(c2ccccc2F)CC1` came in with a melting point of 156 to 158 °C.

As to `COc1ccc(C(=O)C2C(Cl)=CC=CC2(C)Cl)c(OC(=O)Cc2ccccc2)c1OC` (configuration not stated), the melting point is 106 °C.

In turn, `CCOC(=O)CC(=O)c1cc(O)c(O)c([N+](=O)[O-])c1` returned a melting point of 136 to 137 °C.

Turning to `Cc1ccc2[nH]c(C(=O)O)cc2c1O`, the melting point worked out at 262 °C.

In turn, `CCC(CC)Nc1c([N+](=O)[O-])cc(C(C)C)c(CSC#N)c1[N+](=O)[O-]` yielded a melting point of 68 to 70 °C.

`CC(=O)NC1(c2ccc(C(C)N3CCN(c4ccc(F)cc4)CC3)cc2)CC1` (configuration not stated) showed a melting point of 149 to 150 °C.

For the compound `COc1ccc(Cn2cc3nc(Nc4ccc(C(F)(F)F)cc4Cl)nc(OCc4ccccc4)c3n2)cc1`, the melting point fell in the range of 189 to 192 °C.

`O=C(NCCSc1ccccc1)n1cc(F)c(=O)[nH]c1=O` registered a melting point of 130 to 133 °C.

Take `Clc1cccc(Nc2nnc(-c3ccc4nonc4c3)s2)c1Cl`: the melting point was 229 to 231 °C.

Compound `NCC1Cc2cccc3cccc1c23` (configuration not stated) came in with a melting point greater than 250 °C.

`CC(C)(C)c1ccc(C(=O)CCCN2CCC(C3(O)c4ccccc4CCc4ccccc43)CC2)cc1` yielded a melting point of 132 to 134 °C.

Compound `CC(C)CNc1cccnc1N1CCN(C(=O)c2ccc(C(=O)NC(C)(C)CO)cn2)CC1` came in with a melting point of 140 to 143 °C.

In turn, `Cc1c(-c2nnn[nH]2)oc2c(c1=O)CS(=O)(=O)c1ccccc1-2` registered a melting point of 268 to 270 °C.

Take `CC(C)c1[nH]n(-c2c(Cl)cc(Cl)cc2Cl)c2nc(Cc3ccc(N=C=O)cc3)nc(=O)c1-2`: the melting point lay within 233 to 235 °C.

With `O=C(N[C@H]1CC[C@H](CCN2CCC(c3cccc4c3CCO4)CC2)CC1)c1ccc(-n2cccn2)cc1`, the melting point was determined as 258 °C.

Turning to `COC(=O)CCNC(=O)COc1ccc2c(c1)CC(NS(=O)(=O)c1ccc(Cl)cc1)C2` (configuration not stated), the melting point was in the range of 126 to 128 °C.

The compound `CCCSc1ncc(C(=O)N[C@@H](C)C(=O)O)n1Cc1ccccc1Cl` yielded a melting point of 173 to 176 °C.

For `COc1ccc2c(c1)cc(C(=O)c1cc3ccccc3n1S(=O)(=O)c1ccccc1)n2S(=O)(=O)c1ccccc1`, the melting point was found to be 205 °C.

Consider `OC1(OCc2ccccc2)C(Cl)=C(Cl)C=CC1OCc1ccccc1` (configuration not stated), for which the melting point lay in the range of 74 to 75 °C.

The compound `Fc1ccc2c(C3CCN(C(=S)Nc4ccccc4)CC3)nn(-c3ccccc3)c2c1` had a melting point of 151 to 153 °C.

The compound `Cc1ccccc1[C@@H](CCC(=O)O)Oc1cc(OCc2cccnc2)ccc1[N+](=O)[O-]` came in with a melting point of 117 to 119 °C.

Turning to `Cc1cccc(Cl)c1NS(=O)(=O)c1n[nH]c(N)n1`, the melting point is 217 °C.

`COc1ccc(CN2C(=O)CN(Cc3ccc(C(=O)O)cc3)S2(=O)=O)c(OC)c1` came in with a melting point of 175 to 177 °C.

As to `CS(=O)(=O)N1C[C@H](S)C[C@H]1COC(=O)Nc1ccccc1`, the melting point is 148 °C.

Consider `COC(=O)c1sc(C(C)(C)C)cc1NC(=O)Nc1ccc(C)cc1`, for which the melting point was in the range of 109 to 111 °C.

Regarding `O=c1ccc(S(=O)(=O)c2[nH]c3ccccc3c2Cl)n[nH]1`, the melting point was 250 °C.

In turn, `COc1ccc2c(-c3ccccc3)c(C(=O)c3cccc(Cl)c3)sc2c1` returned a melting point of 105 °C.

In turn, `COC(=O)c1ccc(Cl)cc1NC(=O)CSc1cccc(Br)c1` had a melting point of 89 to 90 °C.

`COc1cc(F)c(C2NCCc3ccsc32)cc1OC` (configuration not stated) showed a melting point of 108 to 111 °C.

`CCOC(=O)c1c(N2CCN(C(=O)c3cccs3)CC2)c2cc(F)cnc2[nH]c1=O` gave a melting point of 124 to 133 °C.

Compound `N#CC(=C(O)c1ccncc1)c1ccc(F)cc1` had a melting point of 225 °C.

For the compound `O=C(c1ccc(Cl)cc1)c1cc(-c2ccccc2)c(N2CCOCC2)s1`, the melting point was 187 to 188 °C.

On to `CC(=O)NCC1OC(=O)N2c3ccc(-c4ccccc4)cc3CC12` (configuration not stated), for which the melting point lay in the range of 181 to 183 °C.

`N#CSCCNc1ccc(C(F)(F)F)cc1[N+](=O)[O-]` returned a melting point of 115 to 117 °C.

In the case of `CCOC(=O)C1CCc2ccc(N)c(C)c2O1` (configuration not stated), the melting point was 82 to 85 °C.

Consider `CN1CCN(c2nn(-c3ccc(O)cc3)c3ccccc23)CC1`, for which the melting point lay within 191 to 193 °C.

For `Clc1nc(-c2nnc(Oc3ccccc3)o2)[nH]c1Cl`, the melting point worked out at 109 °C.

On to `CCNC(C)CCNC(CC(=O)O)C(=O)OC1CCCCC1` (configuration not stated), for which the melting point fell in the range of 124 to 128 °C.

Compound `NC(=O)CNS(=O)(=O)c1ccc(CCN2CC=C(c3c[nH]cc3-c3ccncc3)CC2c2ccc(F)cc2)cc1` (configuration not stated) showed a melting point of 230 to 233 °C.

As for `COC(=O)C(=O)c1c(F)c(F)c(OCCOc2ccc3ccccc3c2)c(F)c1F`, the melting point was 69 to 71 °C.

Turning to `CC(Cl)C(=O)Nc1cccc2c1C(=O)c1cccc(NC(=O)C(C)Cl)c1C2=O` (configuration not stated), the melting point was in the range of 288 to 289 °C.

On to `CC(C)(C)C(=O)Nc1ccc(SSc2ccc(NC(=O)C(C)(C)C)cc2C(N)=O)c(C(N)=O)c1`, for which the melting point fell in the range of 288 to 289 °C.

`CCOC(=O)CNC(=S)NC(=Nc1ccc([N+](=O)[O-])cc1)c1ccccc1` displayed a melting point of 189 to 190 °C.

The compound `COC1(c2cc(F)cc(Sc3ccc(C(C)ONC(N)=O)cc3)c2)CCOCC1` (configuration not stated) came in with a melting point of 84 to 85 °C.

`CCCN(CCC)C1Cc2c[nH]c3ccc(C(=O)C(C)C)c(c23)C1` (configuration not stated) showed a melting point of 128 °C.

Compound `O=C(c1ccc(Cl)cc1)c1cccc2c1CCC2C(=O)O` (configuration not stated) yielded a melting point of 137 to 139 °C.

Consider `N#Cc1ccccc1OC[C@@H](O)CNCCOc1ccc2oc(-c3ccon3)cc2c1`, for which the melting point fell in the range of 94 to 95 °C.

`O=C(c1ccncc1)c1ccc(Cl)c([N+](=O)[O-])c1`: the melting point was in the range of 114 to 116 °C.

On to `O=C(/C=C/C=C(c1ccccc1C(F)(F)F)c1ccccc1C(F)(F)F)NCCCCc1cccnc1`, for which the melting point lay within 110 to 112 °C.

In turn, `CSc1cc(C)nc(SC)c1NC(=O)CCCCSc1nc2c(C)c(Cl)cc(C(C)C)c2o1` showed a melting point of 155 to 156 °C.

`COc1cccc(OC)c1C(=O)Nc1nnc(C2SCCCS2)s1` registered a melting point of 200 to 208 °C.

`COc1cc2c(cc1OC)C(C=O)c1ccccc1CC2` (configuration not stated): the melting point was in the range of 130 to 132 °C.

Compound `Cc1ccc(S(=O)(=O)N2C(C3=NOC(C)N3)CCC2c2ccc(F)cc2)cc1` (configuration not stated) came in with a melting point of 68 °C.

`COC(=O)CCCc1ccc(C(=O)Cc2ccccc2)cc1` came in with a melting point of 54 to 54.5 °C.

Take `CCOC(=O)c1nccn1Cc1ccccc1[N+](=O)[O-]`: the melting point lay within 107 to 111 °C.

The compound `Cn1c(C(F)(F)F)nc2c(OCc3ccccc3)cc(Br)cc21` came in with a melting point of 141 to 142 °C.

Regarding `Oc1ccccc1-c1ccncc1`, the melting point lay in the range of 218 to 220 °C.

The compound `CC(=O)NCCCC(C)C1CC=C2C3=C(CCC21C)C1(C)CCC(O)C(C)(C)C1CC3` (configuration not stated) yielded a melting point of 219 to 221 °C.
